Reference: paper PMC5678291, “Molecular Mechanism of Enzymatic Chlorite Detoxification: Insights from Structural and Kinetic Studies” (ACS Catalysis, 2017)

Legend:
[1] = target: T1, CCld (Cyanothece sp. PCC 7425, UniProt B8HNS6); assay: UV-vis titration; assay type: binding; conditions: read-out: dissociation constant
T1 construct: gene Cyan7425_1434

[2] = target: Arg127 (UniProt position 127, LPGVARRLLHC); assay: neutron; conditions: 293 K; 0.15 M MgSO4; 0.1 M glycine-NaOH pH 9.0, 0.15 M MgSO4, 30% PEG 3350, 5% glycerol; Ferric CCld crystal, hydroxide (OD-) bound to the haem iron, Arg127 in the 'out' conformation

T1 sequence (B8HNS6 entry or part of it): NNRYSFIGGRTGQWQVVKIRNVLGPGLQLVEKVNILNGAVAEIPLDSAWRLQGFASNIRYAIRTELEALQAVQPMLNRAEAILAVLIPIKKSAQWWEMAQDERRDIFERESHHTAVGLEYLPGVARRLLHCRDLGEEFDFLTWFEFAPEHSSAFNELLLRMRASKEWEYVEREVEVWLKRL

F [F^–, fluoride]
Kd [1]: 12.6 mM

N#CS [SCN^–, thiocyanate]
Kd [1]: 0.074 mM

Chlorite dismutase (CCld) (Cyanothece sp. PCC7425)
pKa [2]: >9.0 (protonated at pH 9.0)
